The values that follow come from patent publication US6358977B1, “Use of 4-piperidinemethanol derivatives in treatment of neurodevelopmental disorders” (A. Carlsson Research AB, priority 1998, dated 2002).

“Also recorded” adds a separate entry of the source.

This data set relates to Male NMRI mice. The experiment in a line: Animal model of autism: defective habituation (locomotor activity) in mice rendered hypoglutamatergic with MK-801. Type of data set: in vivo. An excerpt: The inventor of the present invention and her coworkers have developed an animal model of autism, where mice are rendered hypoglutamatergic by treatment with the glutamate antagonist MK-801 (dizocilpine). Similarly to persons with autism, these hypoglutamatergic animals display defective habituation, perseverant behavior (e.g. relentless forward locomotion, so-called “obstinate progression”), stereotypies, a meager behavioral repertoire and difficulties to change behavioral program. The researchers have chosen to focus their investigation on the defective habituation, since this variable is easily quantified, and a prominent feature of autism.
Male NMRI mice (B&K Universal AB, Sollentuna, Sweden) weighing 25-30g at the time of testing were used in the experiments. Animals were housed in groups of about 20 per cage for at least one week before the experiment was carried out, with free access to water and food. Temperature: 20-22° C.; 12h light-dark cycle (lights on 6 AM).
(+)-MK-801 hydrogen maleate (dizocilpine; Research Biochemical Inc) was dissolved in physiological saline. M100907 [(+)-(R)-α-(2,3-dimethoxyphenyl)-1-[2-(4-fluorophenyl) ethyl]-4-piperidinemethanol; courtesy Hoechst Marion Roussel, Inc USA] was dissolved in a few microliters of acetic acid and a 5.5% glucose solution. The injection volume was 10 ml/kg. Control. animals were always given the same solvent as the drug was dissolved in.
Locomotor activity was measured using activity meters (Diaiscan animal activity monitor, model RXYZM (16) Tao, Omnitech Electronics, Columbus, Ohio, USA). The equipment consists of eight light and sound attenuated boxes (42×42×30 cm) with infrared photo sensors along the front and the side near the floor of the boxes.
When moved to a novel environment, normal mice display an initial phase of exploratory activity lasting about 30 minutes. […] The results shown in the figure are medians and upper and lower quartiles.
The inventor and […] co-workers then tested a compound according to the invention, namely M100907. […] M100907 was administered intraperitoneally immediately before the commencement of the behavioral recording. The M100907 doses were 0.001., 0.01 and 0.1 mg/kg, respectively. The results shown are medians and upper and lower quartiles (veh=vehicle=controls).

With `COc1cccc([C@H](O)C2CCN(CCc3ccc(F)cc3)CC2)c1OC` [M100907, R-(+)-α-(2,3-dimethoxyphenyl)-1-[2-(4-fluorophenylethyl)]-4-piperidine-methanol], under “M100907 0.001, 0.01 and 0.1 mg/kg intraperitoneally immediately before behavioral recording, MK-801-treated mice, ordinate m/30 min”, the “effect on MK-801-induced deficient habituation (loss of habituation, FIG. 2)” value is on record as “displays anti-autistic effects; also recorded: alleviates the deficient habituation”. Further, for the setting “M100907 0.001, 0.01 and 0.1 mg/kg intraperitoneally, mice”, the “interference with normal behavior” value is on record as “without interfering with normal behavior”. Further, the “hyperactivity induced by the glutamate antagonist MK-801” value (mouse, M100907 intraperitoneally) is on record as “reducing the hyperactivity”.

With `C[C@]12N[C@H](Cc3ccccc31)c1ccccc12` [MK-801, reference compound], the “habituation in novel environment (loss of habituation, FIG. 1)” value (MK-801 0.3 or 0.8 mg/kg intraperitoneally immediately before 70 minutes recording, ordinate counts/5 min interval) was “deficient habituation; also recorded: impaired habituation”.
